Data: patent US20210087222A1, “COMPOUNDS FOR TREATING NEURODEGENERATIVE DISORDERS” (ETHNODYNE, priority 2017, published 2021)

How the values were obtained:
[1] = tested on: primary rat motor neurons injured with glutamate; test: Primary motor neuron culture survival after glutamate injury (in vitro ALS model); assay type: cell-based
Protocol: The aim of this study was to study the effect of CR591 on primary motor neuron culture from rat spinal cord (SC) injured by glutamate exposure (a well validated in vitro ALS model and model of motor neuron diseases).
Rat SC motor neurons were cultured as described by Martinou et al., Neuron. 1992 April; 8(4):737-44 and Wang et al., Hum Mol Genet. 2013 Dec. 1; 22(23):4706-19. Briefly, pregnant female rats (Wistar, Janvier labs) of 14 days gestation were killed by cervical dislocation. […] Cells were then centrifuged at 180 g for 10 min at +4° C. on a layer of BSA (3.5%) in L15 medium. […] The medium was changed every day.
The following conditions were assessed: • Control • + glutamate (5 μM 20 mn then 48 h) • + glutamate (5 μM 20 mn then 48 h)+CR591 1 pmol/L • + glutamate (5 μM 20 mn then 48 h)+CR591 10 pmol/L • + glutamate (5 μM 20 mn then 48 h)+CR591 100 pmol/L • + glutamate (5 μM 20 mn then 48 h)+CR591 1 nmol/L • + glutamate (5 μM 20 mn then 48 h)+CR591 10 nmol/L • + glutamate (5 μM 20 mn then 48 h)+CR591 100 nmol/L • + glutamate (5 μM 20 mn then 48 h)+CR591 1 μmol/L • + glutamate (5 μM 20 mn then 48 h)+CR591 10 μmol/L […]
For each condition, 6 wells were assessed, 30 pictures per well were taken using ImageXpress (Molecular Devices) with 20× magnification, to assess motor neuron survival (MAP-2). […]

[2] = tested on: Human MRC-5 cell line derived from normal lung tissue; test: Cytotoxicity test, MTS cell growth inhibition assay; assay type: cell-based; conditions: MRC-5 cells, 72 h incubation, 8 concentrations, FIG. 1a
Protocol: (§1) Human MRC-5 cell line derived from normal lung tissue and human HCT-116 colorectal carcinoma were obtained from the American Type Culture Collection (ATCC, Rockville, Md.). Primary Human Umbilical Vein Endothelial Cells (HUVEC) isolated from the vein of the umbilical cord were obtained from Promocell (Germany). Cell lines were cultured according to the supplier's instructions. Human HCT-116 cells were grown in Gibco McCoy's 5A supplemented with 10% fetal calf serum (FCS) and 1% glutamine. Human MRC-5 cells were grown in DMEM supplemented with 10% fetal calf serum (FCS) and 1% glutamine. HUVECs were grown in Endothelial Cell Growth Medium 2 which is low-serum (2% V/V) media optimized for the cultivation of endothelial cells from large blood vessels.
(§2) Cells were counted using a Vi-cell XR (Beckman Coulter) and their viability assessed by 0.25% trypan blue dye exclusion. They were tested for the presence of mycoplasma before experiments with the Mycoplasma PCR Detection Kit (Applied Biological Materials Inc., Canada) in accordance with the manufacturer instructions and only mycoplasma-free cells were used for further investigations.
(§3) Cell lines were maintained at 37° C. in a humidified atmosphere containing 5% CO2. Cell growth inhibition was determined by an MTS assay according to the manufacturer's instructions (Promega, Madison, Wis., USA). […] After 24 h of culture, the cells were treated with the compound CR591 of example 1 at 8 different final concentrations. Each concentration was obtained from serial dilutions in culture medium starting from the stock solution. Control cells were treated with the vehicle. Experiments were performed in triplicate.
(§4) After 72 h of incubation, 20 μL of CellTiter 96® AQueous One Solution Reagent was added for 2 h before recording absorbance 490 nm with a spectrophotometric plate reader. The dose-response curves were plotted with Graph Prism software and the IC50 values were calculated using the Graph Prism software from polynomial curves (four or five-parameter logistic equations).

[3] = tested on: Primary Human Umbilical Vein Endothelial Cells (HUVEC); test: as above; assay type: cell-based; conditions: 72 h incubation, 8 concentrations, FIG. 1c
Protocol: as §1, §2, §3, §4

[4] = tested on: human HCT-116 colorectal carcinoma; test: as above; assay type: cell-based; conditions: HCT-116 cells, 72 h incubation, 8 concentrations, FIG. 1b
Protocol: as §1, §2, §3, §4

[5] = tested on: OPC (precursor cells of oligodendrocytes) in primary cocultures of central neurons and oligodendrocytes; test: In vitro MS (myelination) model, OPC number (A2B5 positive cells) at day 12; assay type: cell-based, rat; conditions: 12 days treatment
Protocol: (§5) A reproducible in vitro myelination model based on primary cocultures of central neurons and oligodendrocytes culturing in 96-well plate is used and adapted to high throughput screening.
(§6) Neurons/oligodendrocytes were cultured as previously described by Charles et al., 2000. PNAS 97 7585-7590.
Briefly, pregnant Wistar female rats of 17 days gestation were killed by cervical dislocation (Janvier Labs, France) and the foetuses removed from the uterus. The forebrains were removed and placed in ice-cold medium of Leibovitz (L15; Pan Biotech, Germany) containing 2% of Penicillin-Streptomycin (Batch 1451013, PanBiotech) and 1% of bovine serum albumin (BSA) (Batch K180713, Pan Biotech). Cortexes were dissociated by trypsinisation for 20 min at 37° C., with Trypsin EDTA 1X (Batch 7310713, PanBiotech). The reaction was stopped by the addition of Dulbecco's modified Eagle's medium (DMEM) (Batch 9710913, PanBiotech) containing DNAase I grade II at 0.1 mg/mL (Batch H131108, PanBiotech) and 10% of foetal calf serum (Batch 41Q7218K, Invitrogen, France). […]
(§7) The immunolabeled cultures were automatically examined with ImageXpress (Molecular Devices) equipped with a LED at ×20 magnification. […] Number of A2B5 positive cells and number of MAG positive cells were automatically analyzed by using Custom module editor (Molecular Devices). […] All values were expressed as mean+/−SEM (s.e.mean) of the 6 wells. […]

[6] = tested on: MAG positive cells (OL) in primary cocultures of central neurons and oligodendrocytes; test: In vitro MS (myelination) model, MAG evaluation at day 18; assay type: cell-based, rat; conditions: 18 days of treatment, bell shape curve
Protocol: as §5, §6
Briefly, pregnant Wistar female rats of 17 days gestation were killed by cervical dislocation (Janvier Labs, France) and the foetuses removed from the uterus. The forebrains were removed and placed in ice-cold medium of Leibovitz (L15; Pan Biotech, Germany) containing 2% of Penicillin-Streptomycin (Batch 1451013, PanBiotech) and 1% of bovine serum albumin (BSA) (Batch K180713, Pan Biotech). Cortexes were dissociated by trypsinisation for 20 min at 37° C., with Trypsin EDTA 1X (Batch 7310713, PanBiotech). The reaction was stopped by the addition of Dulbecco's modified Eagle's medium (DMEM) (Batch 9710913, PanBiotech) containing DNAase I grade II at 0.1 mg/mL (Batch H131108, PanBiotech) and 10% of foetal calf serum (Batch 41Q7218K, Invitrogen, France). Cells were then mechanically dissociated by 3 passages through a 10 mL pipette. Cells were centrifuged at 180×g for 10 min at 4° C. temperature on a layer of BSA (3.5%) in L15 medium. The supernatant was discarded and cells of the pellet were re-suspended in DMEM containing 10% of FCS. […] The supernatant was discarded and cells of pellet were re-suspended in a culture medium consisting of Neurobasal (Batch 1625353, Invitrogen) supplemented with 2% of B27 (Batch 1618508, Invitrogen), 2 mM of L-glutamine (Batch 6620314, PanBiotech), 2% of PS solution, 1% of foetal calf serum (FCS) and 10 ng/mL of platelet-derived growth factor (PDGF-AA) (Batch H131205, PanBiotech). […]
as §7

| SMILES | motor neuron death ([1]; glutamate 5 μM for 20 min, read 48 h later, versus control = 100%) | toxicity (cell growth inhibition) [2] | toxicity (cell growth inhibition) [3] | toxicity (cell growth inhibition) [4] | OPC number (A2B5 positive cells) ([5]; 1 pmol/L to 10 μmol/L, FIG. 2) | total number of OPCs at the highest doses ([5]; highest doses, inhibition of proliferation or toxic effect) | concentration of maximal effect on MAG positive cells / myelination [6] | number of MAG positive cells ([6]; FIG. 3a) | myelination of neurons by OL (area of MAG expression) ([6]; FIG. 3b) | protective effect of motor neuron (survival, MAP-2) ([1]; added 1 h before glutamate (5 μM 20 min, then 48 h), between 1 nM and 10 nM, FIG. 4) |
| --- | --- | --- | --- | --- | --- | --- | --- | --- | --- | --- |
| N[C@@H](CCC(=O)O)C(=O)O [Glutamate, glutamate, reference compound] | > 30% | – | – | – | – | – | – | – | – | – |
| CC1=C(CO)C(=O)O[C@@H]([C@@H](C)[C@H]2CCC3C4C[C@H](SC[C@H](N)C(=O)O)[C@]5(O)[C@@H](O)C=CC(=O)[C@]5(C)C4CC[C@@]32C)C1 (stereo partly shown) [CR591] | – | does not show any toxicity | does not show any toxicity | does not show any toxicity | did not show any significant increase | decrease of the total number of OPCs was observed | 1 nM | able to increase the number of MAG positive cells | significantly improved the myelination of neurons by OL | moderate and significant protective effect |
